The values that follow come from US12692232B2, “Indole carboxamide compound, preparation therefor and use thereof” (NANJING RUISHUNING MEDICAL TECHNOLOGY CO., LTD., priority 2021, dated 2026).

The target of the test is T1, TRPC6 channel (Homo sapiens, UniProt Q9Y210).
T1 sequence (Q9Y210 1-931): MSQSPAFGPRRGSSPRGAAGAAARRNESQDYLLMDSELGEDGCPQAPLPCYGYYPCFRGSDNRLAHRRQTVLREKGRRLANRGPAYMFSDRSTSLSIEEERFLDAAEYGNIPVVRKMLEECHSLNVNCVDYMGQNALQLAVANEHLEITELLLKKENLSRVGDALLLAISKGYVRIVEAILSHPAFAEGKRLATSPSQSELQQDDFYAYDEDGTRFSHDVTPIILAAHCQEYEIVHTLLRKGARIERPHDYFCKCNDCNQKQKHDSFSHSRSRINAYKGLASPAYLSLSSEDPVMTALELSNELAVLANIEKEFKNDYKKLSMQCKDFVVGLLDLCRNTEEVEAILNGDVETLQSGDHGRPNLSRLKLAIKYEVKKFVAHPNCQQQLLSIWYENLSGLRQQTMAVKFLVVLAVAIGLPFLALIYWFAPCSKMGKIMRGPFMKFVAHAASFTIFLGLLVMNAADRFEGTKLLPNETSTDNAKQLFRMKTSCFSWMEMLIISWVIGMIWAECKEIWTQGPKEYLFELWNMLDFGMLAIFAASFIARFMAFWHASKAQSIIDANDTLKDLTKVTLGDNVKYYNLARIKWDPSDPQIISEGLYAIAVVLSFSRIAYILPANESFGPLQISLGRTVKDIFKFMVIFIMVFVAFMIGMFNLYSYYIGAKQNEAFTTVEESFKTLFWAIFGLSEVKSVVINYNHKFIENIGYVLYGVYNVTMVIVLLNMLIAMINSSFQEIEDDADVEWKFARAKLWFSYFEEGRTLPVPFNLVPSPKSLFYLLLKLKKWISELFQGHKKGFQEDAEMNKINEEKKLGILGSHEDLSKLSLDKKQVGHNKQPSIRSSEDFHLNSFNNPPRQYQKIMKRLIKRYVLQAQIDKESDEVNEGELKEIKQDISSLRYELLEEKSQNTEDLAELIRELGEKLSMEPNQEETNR
The experiment in a line: Inhibition of TRPC6 channel-mediated Ca2+ entry in HEK293hTRPC6 cells (Fura-2/AM, single concentration). It counts as cell-based. More on the design: expressed in transfected cells; host or cells: HEK293 (lentiviral transduction, puromycin selection). The note with it: compound 80 μM, OAG 80 μM; for inhibition at 80 µM: read-out: inhibition of Ca2+ entry into the cells via TRPC6 channels compared with the solvent control group. On the procedure:
The inhibitory effect of the compounds of the present invention (as exemplified by Compound 1-1 obtained in Example 1) on TRPC6 channel-mediated Ca^2+ entry was determined using HEK293hTRPC6 as a tool cell overexpressing TRPC6 protein. The method was as follows:
Establishment of HEK293hTRPC6, a tool cell overexpressing TRPC6 protein: human embryonic kidney cells HEK293 were placed in DMEM culture medium (containing 10% inactivated fetal bovine serum, 100 U-mL^−1 penicillin, and 100 mg-L^−1 streptomycin) and cultured at 37° C. in a 5% CO2 incubator. Cells in the logarithmic growth phase were harvested at 50% and incubated with 25 μL of LV105-TRPC6 lentiviral particle suspension for 24 hours, and then the medium was changed. The experiment included a negative control group (no-load lentivirus) and a blank control group. The medium containing 2 μg/mL puromycin was changed after 48 h of infection until the cells in the blank group died. Western Blot assay was performed to detect the expression of TRPC6 protein in the cells to verify the successful construction of HEK293hTRPC6 cell.
Determination of the effect of the compounds on changes in intracellular calcium ion concentration ([Ca^2+]i) in HEK293hTRPC6 cells: HEK293hTRPC6 cell suspension was added to a 24-well plate with a coverslip and incubated at 37° C. in a 5% CO2 incubator for 24 h. The cell crawls were then removed and placed in the fluorescent dye Fura-2/AM, and incubated for 20 min at room temperature away from light. The slides were placed in the center of the bath, perfused with calcium-free Tyrode's solution for 5 min and fixed on the stage of an inverted fluorescence microscope. […] Fluorescence intensity was measured at different excitation wavelengths (340 nm, 380 nm) using a TILL Ion Imaging system (TILLvisION), and the value of fluorescence intensity emitted by intracellular fluorescent probe at different excitation wavelengths was substituted into the formula: [Ca^2+]i=Kd×β×(R−Rmin)/[…]. In the formula, R represents the experimentally determined fluorescence ratio (F340/F380); Kd represents the dissociation constant for the reaction of Fura-2/AM with Ca^2+, which is 386 nmol/L under physiological conditions; Rmax represents the F340/F380 when Ca^2+ is saturated (all Fura-2/AM is bound to Ca^2+); Rmin represents the F340/F380 when there is no Ca^2+; and β represents the ratio of fluorescence intensities at 380 nm in the absence of Ca^2+ and when Ca^2+ is saturated.
Experimental results: the amount of TRPC6-mediated Ca^2+ entry under conditions of open TRPC6 channels and the presence of extracellular Ca^2+ was measured, and the actual biological activity of the compounds was assessed by comparison with the solvent control.

The structures appear in SMILES notation.

By inhibition is commonly meant the change of the read-out against control, counted positive when it falls. Turning to `Cn1c(C(=O)NCCC(=O)O)cc2ccccc21` [3-[(1-methyl-1H-indole-2-carbonyl)amino]propionic acid, reference compound], the “amount of TRPC6-mediated Ca2+ entry” value amounted to 0.10±0.01 and the inhibition at 80 µM was 53.9%.

Take `CC(=O)OCCCNC(=O)c1c(C=O)c2ccccc2n1C` [compound 1-1, propyl 3-[(3-formyl-1-methyl-1H-indole-2-carbonyl)amino]acetate]: the “amount of TRPC6-mediated Ca2+ entry” value amounted to 0.06±0.01 and the inhibition at 80 µM worked out at 79.9%.
